Source: ChEMBL document CHEMBL1150629, “Isolation and structure of pedilstatin from a republic of maldives Pedilanthus sp” (J Nat Prod, 2002)
In brackets after ≈: the same amount, converted by molar mass.

Legend:
[1] = system: Human immunodeficiency virus 1; assay: Antiviral activity against HIV1 RF in human CEM-SS cells assessed as cell protection from infection after 7 days; type: functional, organism-based; conditions: Human immunodeficiency virus 1, CEM-SS, 168 h
[2] = system: Human immunodeficiency virus 1; assay: Antiviral activity against HIV1 RF in human CEM-SS cells assessed as cell protection from infection at 2 to 5 uM after 7 days relative to control; type: functional
[3] = Inhibition of [20-3H]phorbol 12,13-dibutyrate binding to protein kinase C
CEM-SS = assay: Cytotoxicity against human CEM-SS cells assessed as inhibition of cell metabolic activity after 7 days by XTT assay; type: functional, cell-based; conditions: 168 h
P388 = assay: Cytotoxicity against mouse P388 cells; type: functional; conditions: read-out: ED50 (the source's name)

- EC50 [1]: 1030 nM
- Ki [3]: 620 nM
SMILES: CCC/C=C/C=C\C(=O)O[C@@H]1[C@@H](C)[C@]2(O)[C@@H]3C=C(C)C(=O)[C@@H]3CC(CO)=C[C@H]2[C@@H]2C(C)(C)[C@]12OC(C)=O [PEDILSTATIN]
- Activity [2]: 80%
- IC50 (CEM-SS): 13300 nM
- EC50 (P388): 0.28 µg/mL (≈ 0.546 µM)
